# Test results published in US7473688B2, “Indolobenzazepine HCV NS5B inhibitors” (Bristol-Myers Squibb Company, priority 2005, dated 2009).
# Where two headings read alike, the source gives them in different places.
# Legend:
# HCV replicon = HCV replicon FRET assay; format: cell-based; conditions: Hepatitis C virus, FRET assay, read-out: EC50*
# Text: FRET Assay Preparation. To perform the HCV FRET screening assay, 96-well cell culture plates were used. The FRET peptide (Anaspec, Inc.) (Taliani et al., Anal. Biochem. 1996, 240, 60-67) contains a fluorescence donor, EDANS, near one end of the peptide and an acceptor, DABCYL, near the other end. The fluorescence of the peptide is quenched by […] resonance energy transfer (RET) between the donor and the acceptor, but as the NS3 protease cleaves the peptide the products are released from RET quenching and the fluorescence of the donor becomes apparent. The assay reagent was made as follows: 5× cell Luciferase cell culture lysis reagent from Promega (#E153A) diluted to 1× with dH2O, NaCl added to 150 mM final, the FRET peptide diluted to 20 uM final from a 2 mM stock.
# To prepare plates, HCV replicon cells, with or without a Renilla luciferase reporter gene, were trypsinized and placed into each well of a 96-well plate with titrated test compounds added in columns 3 through 12; columns 1 and 2 contained a control compound (HCV protease inhibitor), and the bottom row contained cells without compound. The plates were then placed in a CO2 incubator at 37° C.
# Assays. Subsequent to addition of the test compounds described above (FRET Assay Preparation), at various times the plate was removed and Alamar blue solution (Trek Diagnostics, #00-100) was added per well as a measure of cellular toxicity. After reading in a Cytoflour 4000 instrument (PE Biosystems), plates were rinsed with PBS and then used for FRET assay by the addition of 30 ul of the FRET peptide assay reagent described above (FRET Assay Preparation) per well. The plate was then placed into the Cytoflour 4000 instrument which had been set to 340 excite/490 emission, automatic mode for 20 cycles and the plate read in a kinetic mode. Typically, the signal to noise using an endpoint analysis after the reads was at least three-fold. Alternatively, after Alamar blue reading, plates were rinsed with PBS, 50 ul of DMEM (high glucose) without phenol red was added and plates were then used for luciferase assay using the Promega Dual-Glo Luciferase Assay System.
# Compound analysis was determined by quantification of the relative HCV replicon inhibition and the relative cytotoxicity values. To calculate cytoxicity values, the average Alamar Blue fluorescence signals from the control wells were set as 100% non-toxic. The individual signals in each of the compound test wells were then divided by the average control signal and multiplied by 100% to determine […]. To calculate the HCV replicon inhibition values, an average background value was obtained from the two wells containing the highest amount of HCV protease inhibitor at the end of the assay period. These numbers were similar to those obtained from naïve Huh-7 cells.
# The background numbers were then subtracted from the average signal obtained from the control wells and this number was used as 100% activity. The individual signals in each of the compound test wells were then divided by the averaged control values after background subtraction and multiplied by 100% to determine percent activity. EC50 values for a protease inhibitor titration were calculated as the concentration which caused a 50% reduction in FRET or luciferase activity. The two numbers generated for the compound plate, percent cytoxicity and percent activity were used to determine compounds of interest for further analysis.
# HCV NS5B = target: T1, HCV NS5B (Hepatitis C virus genotype 1b, UniProt Q9WMX2); test: HCV NS5B RdRp enzyme assay (preincubation protocol); format: biochemical
# T1 construct: The protein was expressed with an 18 amino acid C-terminal truncation to enhance the solubility; made in house; host or cells: E. coli BL21 (DE3), pET21a
# T1 sequence (Q9WMX2 2420-2992): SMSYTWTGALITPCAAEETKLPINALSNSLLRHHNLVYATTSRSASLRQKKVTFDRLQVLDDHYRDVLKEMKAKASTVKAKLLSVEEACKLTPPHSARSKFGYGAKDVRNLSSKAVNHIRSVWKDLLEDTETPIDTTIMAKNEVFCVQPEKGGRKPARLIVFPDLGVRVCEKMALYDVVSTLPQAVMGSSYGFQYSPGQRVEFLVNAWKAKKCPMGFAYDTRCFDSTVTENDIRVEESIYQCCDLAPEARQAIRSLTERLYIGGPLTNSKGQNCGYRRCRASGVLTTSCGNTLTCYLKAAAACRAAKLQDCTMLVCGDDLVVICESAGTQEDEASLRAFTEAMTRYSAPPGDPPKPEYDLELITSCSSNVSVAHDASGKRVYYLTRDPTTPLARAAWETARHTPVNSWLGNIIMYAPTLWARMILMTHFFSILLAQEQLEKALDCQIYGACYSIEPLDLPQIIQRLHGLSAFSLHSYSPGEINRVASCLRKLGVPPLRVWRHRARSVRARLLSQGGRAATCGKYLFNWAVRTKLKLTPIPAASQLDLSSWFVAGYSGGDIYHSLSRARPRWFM
# How it was run: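 C-terminally truncated (Δ18) genotype 1b NS5B from E. coli, 14 nM, added to compound, then polyA template (0.2 nM), 3H-UTP (0.29 μM) and oligo-dT12 primer precaptured on streptavidin SPA beads. 4 h at 30 °C, pH 7.5, 2% DMSO; SPA readout; IC50 from seven concentrations by logistic fit.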
compound,measurement,setting,value
CC(=O)NC1CCN(C(=O)C2=Cc3ccccc3-c3c(C4CCCCC4)c4ccc(C(=O)O)cc4n3C2)CC1,EC50,HCV replicon; Table 1,0.07 to 1 µM
same,IC50,"HCV NS5B; Table 1, read-out: IC50*",0.01 to 1 µM
O=C(NS(=O)(=O)N1CCN(CC(F)(F)F)CC1)c1ccc2c(C3CCCCC3)c3n(c2c1)CC(C(=O)N1CCOCC1)=Cc1ccccc1-3 [drawing 391],EC50,HCV replicon; Table 1a,0.03 to 1 µM
same,IC50,"HCV NS5B; Table 1a, read-out: IC50*",0.01 to 1 µM
COc1ccc2c(c1)C=C(C(=O)N(C)Cc1nccs1)Cn1c-2c(C2CCCCC2)c2ccc(C(=O)NS(=O)(=O)N(C)C)cc21,EC50,HCV replicon; Table 1b,0.03 to 1 µM
same,IC50,"HCV NS5B; Table 1b, read-out: IC50*",< 0.02 µM
COc1ccc2c(c1)C=C(C(=O)N1CC(OP(=O)(OC(C)(C)C)OC(C)(C)C)C1)Cn1c-2c(C2CCCCC2)c2ccc(C(=O)NS(=O)(=O)N(C)C)cc21,EC50,HCV replicon; Table 1b,0.03 to 1 µM
same,IC50,"HCV NS5B; Table 1b, read-out: IC50*",0.02 to 1 µM
O=C(O)c1ccc2c(C3CCCCC3)c3n(c2c1)CC(C(=O)N1CCC(N2CCOCC2)CC1)=Cc1ccc(Cl)cc1-3,EC50,HCV replicon; Table 1,1 to 10 µM
same,IC50,"HCV NS5B; Table 1, read-out: IC50*",> 1 µM
CN(C)S(=O)(=O)NC(=O)c1ccc2c(C3CCCCC3)c3n(c2c1)CC(C(=O)N1CCC(n2ccnn2)CC1)=Cc1ccccc1-3,EC50,HCV replicon; Table 1,0.07 to 1 µM
same,IC50,"HCV NS5B; Table 1, read-out: IC50*",0.01 to 1 µM
COc1ccc2c(c1)C=C(C(=O)N1C[C@@H](C)N(C(C)=O)[C@@H](C)C1)Cn1c-2c(C2CCCCC2)c2ccc(C(=O)NS(=O)(=O)N(C)C)cc21,EC50,HCV replicon; Table 1a,0.03 to 1 µM
same,IC50,"HCV NS5B; Table 1a, read-out: IC50*",0.01 to 1 µM
COc1ccc2c(c1)CC(NC(=O)N1CCC(N3CCCC3)CC1)Cn1c-2c(C2CCCCC2)c2ccc(C(=O)NS(=O)(=O)N(C)C)cc21 (stereo not shown),EC50,HCV replicon; Table 1a,0.03 to 1 µM
same,IC50,"HCV NS5B; Table 1a, read-out: IC50*",0.01 to 1 µM
CN(C)S(=O)(=O)NC(=O)c1ccc2c(C3CCCCC3)c3n(c2c1)CC(C(=O)N1CCN(S(C)(=O)=O)CC1)Cc1ccccc1-3 (stereo not shown),EC50,HCV replicon; Table 1,0.07 to 1 µM
same,IC50,"HCV NS5B; Table 1, read-out: IC50*",0.01 to 1 µM
COC(=O)c1ccc2c(C3CCCCC3)c3n(c2c1)CC(C(=O)N1CCC(N2CC[C@@H](F)C2)CC1)=Cc1ccccc1-3,EC50,HCV replicon; Table 1,> 0.37 µM
same,IC50,"HCV NS5B; Table 1, read-out: IC50*",> 1 µM
O=C(O)c1ccc2c(C3CCCCC3)c3n(c2c1)CC(C(=O)N1CCC(C(=O)N2CCCC2)CC1)=Cc1ccccc1-3,EC50,HCV replicon; Table 1,0.07 to 1 µM
same,IC50,"HCV NS5B; Table 1, read-out: IC50*",0.01 to 1 µM
COc1ccc2c(c1)C=C(C(=O)N(C)[C@H](C)C(=O)O)Cn1c-2c(C2CCCCC2)c2ccc(C(=O)NS(=O)(=O)N(C)C)cc21,EC50,HCV replicon; Table 1b,0.03 to 1 µM
same,IC50,"HCV NS5B; Table 1b, read-out: IC50*",0.02 to 1 µM
COCCN(C)C(=O)C1=Cc2ccccc2-c2c(C3CCCCC3)c3ccc(C(=O)NS(=O)(=O)N(C)C)cc3n2C1,EC50,HCV replicon; Table 1,0.07 to 1 µM
same,IC50,"HCV NS5B; Table 1, read-out: IC50*",0.01 to 1 µM
O=C(O)c1ccc2c(C3CCCCC3)c3n(c2c1)CC(C(=O)N1CCC(n2ccnn2)CC1)=Cc1ccccc1-3,EC50,HCV replicon; Table 1,0.07 to 1 µM
same,IC50,"HCV NS5B; Table 1, read-out: IC50*",0.01 to 1 µM
COc1ccc2c(c1)C=C(C(=O)N1CC(C(=O)N3CCOCC3)C1)Cn1c-2c(C2CCCCC2)c2ccc(C(=O)NS(=O)(=O)N(C)C)cc21,EC50,HCV replicon; Table 1b,0.03 to 1 µM
same,IC50,"HCV NS5B; Table 1b, read-out: IC50*",0.02 to 1 µM
O=C(O)c1ccc2c(C3CCCCC3)c3n(c2c1)CC(C(=O)N1CC[C@H](F)C1)=Cc1ccccc1-3,EC50,HCV replicon; Table 1,0.07 to 1 µM
same,IC50,"HCV NS5B; Table 1, read-out: IC50*",0.01 to 1 µM
COc1ccc2c(c1)CC(C(=O)N1CCN(CCO)CC1)Cn1c-2c(C2CCCCC2)c2ccc(C(=O)NS(=O)(=O)N(C)C)cc21 (stereo not shown),EC50,HCV replicon; Table 1b,0.03 to 1 µM
same,IC50,"HCV NS5B; Table 1b, read-out: IC50*",0.02 to 1 µM
C[C@@H]1CN(C(=O)C2=Cc3ccccc3-c3c(C4CCCCC4)c4ccc(C(=O)NCCN5CCOCC5)cc4n3C2)C[C@H](C)O1,EC50,HCV replicon; Table 1,1 to 10 µM
same,IC50,"HCV NS5B; Table 1, read-out: IC50*",0.01 to 1 µM
COc1ccc2c(c1)C=C(C(=O)N(C)CCN(C)C(C)=O)Cn1c-2c(C2CCCCC2)c2ccc(C(=O)NS(=O)(=O)N(C)C)cc21,EC50,HCV replicon; Table 1a,0.03 to 1 µM
same,IC50,"HCV NS5B; Table 1a, read-out: IC50*",0.01 to 1 µM
COc1ccc2c(c1)CC(NC(=O)N1CCOC(CN(C)C)C1)Cn1c-2c(C2CCCCC2)c2ccc(C(=O)NS(=O)(=O)N(C)C)cc21 (stereo not shown),EC50,HCV replicon; Table 1a,0.03 to 1 µM
same,IC50,"HCV NS5B; Table 1a, read-out: IC50*",0.01 to 1 µM
COc1ccc2c(c1)C=C(C(=O)N1CCOCC1)Cn1c-2c(C2CCCCC2)c2ccc(C(=O)NS(=O)(=O)N3CCC3)cc21,EC50,HCV replicon; Table 1b,0.03 to 1 µM
same,IC50,"HCV NS5B; Table 1b, read-out: IC50*",0.02 to 1 µM
COc1ccc2c(c1)C=C(C(=O)N1CCOCC1)Cn1c-2c(C2CCCCC2)c2ccc(C(=O)NS(=O)(=O)N3CCOCC3)cc21 [drawing 102],EC50,HCV replicon; Table 1,0.07 to 1 µM
same,IC50,"HCV NS5B; Table 1, read-out: IC50*",0.01 to 1 µM
CN(C)S(=O)(=O)NC(=O)c1ccc2c(C3CCCCC3)c3n(c2c1)CC(C(=O)N1CCC(F)CC1)=Cc1ccccc1-3 [drawing 196],EC50,HCV replicon; Table 1,0.07 to 1 µM
same,IC50,"HCV NS5B; Table 1, read-out: IC50*",0.01 to 1 µM
